Assay results taken from patent US4713369A, “Oligopeptidylargininol derivatives and their homologs, a process for their preparation, their use and agents containing them” (Behringwerke Aktiengellschaft, priority 1985, dated 1987).
Read-outs that look alike come from different tables or passages of the source.

Assays:
human α-thrombin = human α-thrombin (Homo sapiens, UniProt P00734)
Description: Test procedure: 700 μl of tris buffer, pH 8.2, are incubated with 100 μl of human α-thrombin (0.28 UI) and 100 μl of inhibitor solution at 37° C. for 5 min. After addition of 100 μl of Tos-Gly-Pip-Arg paranitroanilide (c×3 mMol/l), the extinction at 405 nm is measured.

[1] = system: spermatozoal endoprotease acrosin; conditions: results of Borin et al., Hoppe-Seyler's Z. Physiol. Chem. 362, 1435-1445, 1981; cited from earlier work
F Xa = F Xa (Homo sapiens, UniProt P00742); experiment: Inhibitory action against F Xa, analogous procedure (substrate Bzl-Ile-Glu-Gly-Arg pNA); type: biochemical; conditions: final inhibitor concentration 0.6 mmol/1
Chain of F Xa (P00742 235-488 limits assumed): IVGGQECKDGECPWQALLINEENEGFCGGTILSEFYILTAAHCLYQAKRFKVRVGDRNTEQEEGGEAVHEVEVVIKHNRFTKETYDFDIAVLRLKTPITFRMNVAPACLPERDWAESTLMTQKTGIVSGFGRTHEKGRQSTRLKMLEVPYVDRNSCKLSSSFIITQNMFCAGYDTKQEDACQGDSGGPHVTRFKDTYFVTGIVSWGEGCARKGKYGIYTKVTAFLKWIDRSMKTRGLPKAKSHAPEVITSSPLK
Chain of F Xa (P00742 41-179 partner limits assumed): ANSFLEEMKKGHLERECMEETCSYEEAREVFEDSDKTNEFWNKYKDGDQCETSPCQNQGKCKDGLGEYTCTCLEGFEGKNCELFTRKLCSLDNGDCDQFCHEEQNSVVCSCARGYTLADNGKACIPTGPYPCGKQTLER
Text: F Xa substrate: Bzl-Ile-Glu-Gly-Arg pNA (50% of the Glu as the methyl ester) (c=3 mmol/liter)

plasmin = plasmin (Homo sapiens, UniProt P00747); experiment: Inhibitory action against plasmin, analogous procedure (substrate D-norvalylcyclohexylalanylarginyl paranitroanilide); type: biochemical; conditions: final inhibitor concentration 0.6 mmol/1
Chain of plasmin (P00747 581-810 limits assumed, species assumed): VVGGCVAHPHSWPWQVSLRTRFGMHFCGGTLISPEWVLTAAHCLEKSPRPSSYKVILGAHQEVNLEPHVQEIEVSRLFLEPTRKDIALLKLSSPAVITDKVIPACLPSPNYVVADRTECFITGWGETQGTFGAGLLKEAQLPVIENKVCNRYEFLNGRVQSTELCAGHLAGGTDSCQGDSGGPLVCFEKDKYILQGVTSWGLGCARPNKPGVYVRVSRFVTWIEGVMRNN
Chain of plasmin (P00747 97-580 partner limits assumed, species assumed): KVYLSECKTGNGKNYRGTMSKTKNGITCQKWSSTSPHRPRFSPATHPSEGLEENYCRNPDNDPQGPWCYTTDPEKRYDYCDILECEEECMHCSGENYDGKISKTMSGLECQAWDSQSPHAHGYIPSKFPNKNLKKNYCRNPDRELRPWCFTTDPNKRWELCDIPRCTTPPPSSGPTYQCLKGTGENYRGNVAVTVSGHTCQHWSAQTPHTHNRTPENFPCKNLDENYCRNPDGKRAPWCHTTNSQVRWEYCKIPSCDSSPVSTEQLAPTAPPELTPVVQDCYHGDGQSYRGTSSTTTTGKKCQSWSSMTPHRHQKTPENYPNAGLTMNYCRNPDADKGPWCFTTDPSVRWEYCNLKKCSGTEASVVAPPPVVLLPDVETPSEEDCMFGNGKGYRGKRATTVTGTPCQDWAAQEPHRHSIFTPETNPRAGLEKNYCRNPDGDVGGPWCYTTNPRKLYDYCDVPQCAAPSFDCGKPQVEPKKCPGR
Text: (plasmin substrate: D-norvalylcyclohexylalanylarginyl paranitroanilide (c=3 mmol/l)).

For `Cl.Cl.NC(N)=NCCC[C@@H](COC(=O)c1ccc([N+](=O)[O-])cc1)NC(=O)[C@@H]1CCCN1C(=O)[C@H](N)Cc1ccccc1` [D-Phe-Pro-argininol-4-nitrobenzoate dihydrochloride], the “inhibitory action on thrombin (in words)” value (human α-thrombin) was “approximately corresponded to that of 4-carboxyethylphenylε-guanidinocaproate”.

In the case of `CC(C)(C)OC(=O)N[C@H](Cc1ccccc1)C(=O)N1CCC[C@H]1C(=O)N[C@H](CO)CCCNC(=N)N` [Boc-D-Phe-Pro-Arg CH2 --OH], the “action in the thrombin inhibition test, times less than that of H-D-Phe-Pro-Arg CH2 --OH” value (human α-thrombin; relative to H-D-Phe-Pro-Arg CH2 --OH) is reported as “about 1,000 times”.

Molecule `N=C(N)NCCCCCC(=O)Oc1ccc(CCC(=O)O)cc1` [4-carboxyethylphenyl ε-guanidinocaproate, reference compound] has an IC50 (human α-thrombin) of 3.65 ± 0.05 µM.

In the case of `CC(=O)O.CC(C)C[C@H](NC(=O)OC(C)(C)C)C(=O)N[C@@H](CC(C)C)C(=O)N[C@H](C=O)CCCNC(=N)N.O` [Boc-Leu-Leu-argininal . acetic acid . H2 O], the “inhibition of acrosin (in words)” value [1] is listed as “very active inhibitor”.

For `N=C(N)NCCC[C@@H](CO)NC(=O)[C@@H]1CCCN1C(=O)[C@H](N)Cc1ccccc1.O=C(O)C(F)(F)F.O=C(O)C(F)(F)F` [D-Phe-Pro-argininol ditrifluoroacetate, D-Phe-Pro-Arg-CH2 OH×2CF3 COOH], the “F X a inhibition” value (F Xa) was 49 % inhibition, the Plasmin inhibition (plasmin) was 67 % inhibition and the “inhibitory action on thrombin (in words)” value (human α-thrombin) was “potent inhibition of thrombin”. The “inhibitory action on thrombin (in words)” value (human α-thrombin; listed as D-phenylalanyl-L-prolyl-L-argininol) was “especially strong”.
